Laboratory results reported in PubChem BioAssay (NCI).
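All cell lines were grown in 96-well plates and treated with compound for 48 hours. TGI marks complete inhibition of growth.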

Legend:
Assay in all cases: NCI anticancer screen, dose series, 48 h
[1] = test system: TK-10 renal
[2] = test system: SN12C renal
[3] = test system: A498 renal
[4] = test system: OVCAR-8 ovarian
[5] = test system: SK-MEL-28 melanoma
[6] = test system: SF-539 CNS
[7] = test system: RXF 393 renal
[8] = test system: DU-145 prostate
[9] = test system: SK-MEL-5 melanoma
[10] = test system: UACC-257 melanoma
[11] = test system: MCF7 breast
[12] = test system: CCRF-CEM leukemia
[13] = test system: UACC-62 melanoma
[14] = test system: HCC-2998 colon
[15] = test system: SK-OV-3 ovarian
[16] = test system: SNB-19 CNS
[17] = test system: NCI-H23 lung
[18] = test system: MOLT-4 leukemia
[19] = test system: NCI-H522 lung
[20] = test system: ACHN renal
[21] = test system: LOX IMVI melanoma
[22] = test system: K-562 leukemia
[23] = test system: MALME-3M melanoma
[24] = test system: IGROV1 ovarian
[25] = test system: SF-295 CNS
[26] = test system: NCI-H226 lung
[27] = test system: KM12 colon
[28] = test system: OVCAR-5 ovarian
[29] = test system: OVCAR-3 ovarian
[30] = test system: HL-60(TB) leukemia
[31] = test system: PC-3 prostate
[32] = test system: T-47D breast
[33] = test system: SK-MEL-2 melanoma
[34] = test system: HOP-62 NSCLC
[35] = test system: MDA-MB-231 breast
[36] = test system: M14 melanoma
[37] = test system: COLO 205 colon
[38] = test system: MDA-MB-435
[39] = test system: U251 CNS
[40] = test system: HCT-116 colon
[41] = test system: EKVX NSCLC
[42] = test system: SW-620 colon
[43] = test system: CAKI-1 renal
[44] = test system: HCT-15 colon
[45] = test system: RPMI-8226 leukemia
[46] = test system: 786-0 renal
[47] = test system: MDA-N
[48] = test system: A549 NSCLC
[49] = test system: UO-31 renal
[50] = test system: NCI/ADR-RES ovarian
[51] = test system: HOP-92 NSCLC
[52] = test system: SNB-75 CNS
[53] = test system: HT29 colon
[54] = test system: OVCAR-4 ovarian
[55] = test system: BT-549 breast
[56] = test system: SF-268 CNS
[57] = test system: NCI-H460 lung
[58] = test system: HS 578T breast
[59] = test system: SR leukemia

SMILES: [O-][N+]1=C(c2ccccc2)/C(=C2/C(c3ccccc3)=[N+]([O-])c3ccccc32)Cc2ccccc21
- TGI [1]: 49.2 µM
- TGI [2]: 32.4 µM
- TGI [3]: 21.1 µM
- TGI [4]: 35.6 µM
- TGI [5]: 46.2 µM
- TGI [6]: 56.4 µM
- TGI [7]: 53.1 µM
- TGI [8]: 63.8 µM
- TGI [9]: 35.4 µM
- TGI [10]: 40.9 µM
- TGI [11]: > 100 µM
- TGI [12]: 60.1 µM
- TGI [13]: 28.7 µM
- TGI [14]: 29.5 µM
- TGI [15]: > 100 µM
- TGI [16]: 44.3 µM
- TGI [17]: 34.7 µM
- TGI [18]: 54.3 µM
- TGI [19]: 30.5 µM
- TGI [20]: 50.6 µM
- TGI [21]: 34.5 µM
- TGI [22]: 58.1 µM
- TGI [23]: 40.8 µM
- TGI [24]: 35.2 µM
- TGI [25]: 42.9 µM
- TGI [26]: 42.2 µM
- TGI [27]: 33.9 µM
- TGI [28]: > 100 µM
- TGI [29]: 38.1 µM
- TGI [30]: > 100 µM
- TGI [31]: 34.9 µM
- TGI [32]: 45.8 µM
- TGI [33]: 36.6 µM
- TGI [34]: > 100 µM
- TGI [35]: 33.5 µM
- TGI [36]: 53.7 µM
- TGI [37]: 34.7 µM
- TGI [38]: 55.1 µM
- TGI [39]: 38.7 µM
- TGI [40]: 31.4 µM
- TGI [41]: 48.5 µM
- TGI [42]: 59.2 µM
- TGI [43]: 47.4 µM
- TGI [44]: 36.7 µM
- TGI [45]: 52 µM
- TGI [46]: 34.9 µM
- TGI [47]: 31.7 µM
- TGI [48]: 35.2 µM
- TGI [49]: 28.5 µM
- TGI [50]: 34.4 µM
- TGI [51]: 32.9 µM
- TGI [52]: 47.1 µM
- TGI [53]: 35.9 µM
- TGI [54]: 38.9 µM

SMILES: c1cc2cc(Cc3ccc4[nH]ccc4c3)ccc2[nH]1
- TGI [1]: 52.3 µM
- TGI [2]: 31.7 µM
- TGI [3]: 37.3 µM
- TGI [5]: 96.7 µM
- TGI [6]: 32.9 µM
- TGI [7]: 37.7 µM
- TGI [8]: 56.2 µM
- TGI [9]: 30 µM
- TGI [10]: 57.7 µM
- TGI [11]: 32.3 µM
- TGI [55]: 45.8 µM
- TGI [12]: > 100 µM
- TGI [13]: 38.9 µM
- TGI [14]: 28.8 µM
- TGI [15]: 47.8 µM
- TGI [56]: 55.7 µM
- TGI [16]: 47.5 µM
- TGI [17]: 39.8 µM
- TGI [18]: 41 µM
- TGI [19]: 34.5 µM
- TGI [20]: 64.8 µM
- TGI [21]: 72.3 µM
- TGI [22]: > 100 µM
- TGI [23]: 34.4 µM
- TGI [24]: 39.4 µM
- TGI [25]: 78.9 µM
- TGI [26]: 34.2 µM
- TGI [27]: 30.9 µM
- TGI [28]: 39.7 µM
- TGI [29]: 32.9 µM
- TGI [57]: 31.1 µM
- TGI [30]: 54.4 µM
- TGI [31]: 30.1 µM
- TGI [32]: 53.7 µM
- TGI [33]: 44.3 µM
- TGI [34]: 32.2 µM
- TGI [35]: 33.8 µM
- TGI [36]: 37.7 µM
- TGI [37]: 33.9 µM
- TGI [38]: 45.7 µM
- TGI [39]: 38.5 µM
- TGI [58]: 66.6 µM
- TGI [40]: 33.1 µM
- TGI [41]: 41.7 µM
- TGI [42]: 93.3 µM
- TGI [43]: 33.5 µM
- TGI [44]: 28 µM
- TGI [46]: 33.6 µM
- TGI [47]: 26.5 µM
- TGI [48]: 34.8 µM
- TGI [49]: 34.6 µM
- TGI [51]: 34.9 µM
- TGI [52]: 38.6 µM
- TGI [53]: 33.1 µM
- TGI [54]: 28.7 µM
- TGI [59]: 39.2 µM

SMILES: N#Cc1c2c(c(Nc3cccc(C(F)(F)F)c3)n3c1nc1ccccc13)CCCC2
- TGI [1]: 44.4 µM
- TGI [2]: 88.8 µM
- TGI [3]: 94.9 µM
- TGI [4]: 34.1 µM
- TGI [5]: 47.5 µM
- TGI [6]: 31 µM
- TGI [7]: 86.2 µM
- TGI [8]: > 100 µM
- TGI [9]: > 100 µM
- TGI [10]: > 100 µM
- TGI [55]: 95.3 µM
- TGI [15]: 48 µM
- TGI [56]: 43.1 µM
- TGI [17]: 89.2 µM
- TGI [18]: > 100 µM
- TGI [19]: 22.1 µM
- TGI [20]: > 100 µM
- TGI [21]: 35.8 µM
- TGI [23]: 85.7 µM
- TGI [25]: > 100 µM
- TGI [26]: 63.2 µM
- TGI [27]: > 100 µM
- TGI [28]: 46.6 µM
- TGI [29]: > 100 µM
- TGI [57]: > 100 µM
- TGI [32]: > 100 µM
- TGI [34]: 36.3 µM
- TGI [35]: 58.9 µM
- TGI [37]: > 100 µM
- TGI [38]: > 100 µM
- TGI [39]: 23.7 µM
- TGI [40]: > 100 µM
- TGI [41]: 62.4 µM
- TGI [42]: > 100 µM
- TGI [43]: 82.4 µM
- TGI [44]: > 100 µM
- TGI [45]: > 100 µM
- TGI [46]: 27.9 µM
- TGI [47]: 56.7 µM
- TGI [50]: 51.8 µM
- TGI [51]: 22.5 µM
- TGI [52]: 57.3 µM
- TGI [53]: 56.4 µM
- TGI [54]: > 100 µM

SMILES: C[n+]1ccc2/c(=C\C#N)c3ccccc3n21
- TGI [1]: 63.9 µM
- TGI [2]: > 100 µM
- TGI [4]: > 100 µM
- TGI [5]: 53.5 µM
- TGI [7]: > 100 µM
- TGI [8]: 46.4 µM
- TGI [9]: 35.6 µM
- TGI [10]: 13.9 µM
- TGI [11]: 65 µM
- TGI [55]: 52.8 µM
- TGI [12]: 51.4 µM
- TGI [13]: > 100 µM
- TGI [14]: 50.6 µM
- TGI [15]: 83 µM
- TGI [56]: > 100 µM
- TGI [16]: 30.1 µM
- TGI [17]: 40.7 µM
- TGI [18]: > 100 µM
- TGI [19]: 70.8 µM
- TGI [20]: > 100 µM
- TGI [21]: 40.4 µM
- TGI [22]: > 100 µM
- TGI [23]: 44.6 µM
- TGI [24]: 78.3 µM
- TGI [25]: > 100 µM
- TGI [26]: > 100 µM
- TGI [27]: 45.1 µM
- TGI [28]: > 100 µM
- TGI [29]: 34.2 µM
- TGI [57]: > 100 µM
- TGI [30]: 65.6 µM
- TGI [31]: > 100 µM
- TGI [32]: 32.7 µM
- TGI [33]: 89.9 µM
- TGI [34]: > 100 µM
- TGI [36]: > 100 µM
- TGI [37]: 45.4 µM
- TGI [38]: 63 µM
- TGI [39]: 72.8 µM
- TGI [40]: > 100 µM
- TGI [41]: 85.2 µM
- TGI [42]: > 100 µM
- TGI [43]: > 100 µM
- TGI [44]: > 100 µM
- TGI [45]: 31.3 µM
- TGI [46]: > 100 µM
- TGI [47]: > 100 µM
- TGI [48]: 52.7 µM
- TGI [49]: > 100 µM
- TGI [50]: > 100 µM
- TGI [51]: 63.2 µM
- TGI [53]: 72.1 µM
- TGI [54]: 72.9 µM
- TGI [59]: 56.5 µM
